Assay results as given in patent US20200131476A1, “Differentiation Of Immunocytes Using Pluripotent Stem Cells” (Korea Center For Disease Control And Prevention, priority 2017, published 2020).

Test system: pluripotent stem cells
Assay: Differentiation of pluripotent stem cells into CD34+CD45+ hematopoietic stem cells (FACS)
Type: cell-based
Description: 1) Pluripotent stem cells were adapted to a matrigel-coated dish and a mTeSR1 medium for 3 weeks, and then other colonies except for 5 colonies in 35 pi dish were removed by pipetting. This is a process for providing space for the proliferation of differentiated cells in the future. At this time, when vitronectin is used as a coating material or mTeSR8 is used as a medium, the differentiation of hematopoietic stem cells or macrophages can be induced.
2) The medium for culturing the stem cells used in 1) above was replaced with APEL medium. […] The differentiation into mesodermal cells was induced rapidly by treating with BMP4 at a high concentration (100 ng/ml) for 2 days and then sequentially at a low concentration (20 ng/ml) for 2 days.
In addition, the efficiency of differentiation of hematopoietic stem cells can be increased by treating with the CDDO methyl ester compound together with BMP4 for 4 days. […]
CD34+ and CD45+ are markers specifically expressed in hematopoietic stem cells. […] In order to confirm this, the amount of expression of the markers specifically expressed in hematopoietic stem cells was measured.
The differentiated cells were monolayered and reacted with the antibodies CD34 and CD45 labeled with fluorescence. […]

COC(=O)[C@]12CCC(C)(C)C[C@H]1[C@H]1C(=O)C=C3[C@@]4(C)C=C(C#N)C(=O)C(C)(C)[C@@H]4CC[C@@]3(C)[C@]1(C)CC2 [CDDO methyl ester, 2-cyano-3,12-dioxooleana-1,9(11)-dien-28-oic acid methyl ester]
efficiency of differentiation of hematopoietic stem cells, increase (50 nM added together with BMP4 for 4 days, versus no CDDO methyl ester, FIG. 4): about 3 times | yield of hematopoietic stem cells (further treating with the compound in the BMP4 treatment step): improved by three times or more
